Literature values as cited in patent US12378302B2, “Fusion molecules and uses thereof” (Foundation Medicine, Inc., priority 2012, dated 2025).
pIC50: −log10 of the molar value. Values belong to the molecule of their own block, whether it stands above or below them.

How the values were obtained:
[1] = tested on: FGFR4, VEGFR2 (KDR)
[2] = tested on: MEK1, MEK2, ERK2, and JNK2
[3] = tested on: IGF-1R, Met, Src, Lck, Zap70, Abl and CDK2
[4] = tested on: Flk-1 and FGFR1 trans-phosphorylation
[5] = tested on: Erk1, MKK3, MKK4, c-JUN, PKC, PKA, or CamKII
[6] = molecular target: MEK2 (Homo sapiens, UniProt P36507); conditions: read-out: IC50 against MEK2
[7] = molecular target: MEK1 (Homo sapiens, UniProt Q02750); conditions: read-out: IC50 against MEK1
[8] = tested on: VEGFR-1 and FGFR-1
[9] = tested on: ERK1 or ERK2
[10] = tested on: MEK; conditions: read-out: IC50 against MEK
[11] = molecular target: EGFR (Homo sapiens, UniProt P00533)
[12] = tested on: PDGFR; conditions: read-out: IC50 against PDGFR
[13] = tested on: Flt-1, c-Raf and Lck
[14] = molecular target: CSF-1R (Homo sapiens, UniProt P07333); conditions: read-out: IC50 against CSF-1R
[15] = tested on: PDGFRα/β, Flt-3 and Abl
[16] = tested on: Abl1, AKT3, c-RAF, CamK1, CDK2, c-Met
[17] = molecular target: c-Raf, B-Raf, ERK1/2
[18] = tested on: MM cell lines
[19] = tested on: ERK1/2 phosphorylation
[20] = tested on: Akt-phosphorylation
[21] = tested on: MEK1/2; conditions: read-out: IC50 against MEK1/2
[22] = tested on: cellular pERK
[23] = tested on: cytokine production such as IL-1, TNF and IL-6; conditions: clinical trials

Chain of MEK1 (Q02750 whole entry, species assumed): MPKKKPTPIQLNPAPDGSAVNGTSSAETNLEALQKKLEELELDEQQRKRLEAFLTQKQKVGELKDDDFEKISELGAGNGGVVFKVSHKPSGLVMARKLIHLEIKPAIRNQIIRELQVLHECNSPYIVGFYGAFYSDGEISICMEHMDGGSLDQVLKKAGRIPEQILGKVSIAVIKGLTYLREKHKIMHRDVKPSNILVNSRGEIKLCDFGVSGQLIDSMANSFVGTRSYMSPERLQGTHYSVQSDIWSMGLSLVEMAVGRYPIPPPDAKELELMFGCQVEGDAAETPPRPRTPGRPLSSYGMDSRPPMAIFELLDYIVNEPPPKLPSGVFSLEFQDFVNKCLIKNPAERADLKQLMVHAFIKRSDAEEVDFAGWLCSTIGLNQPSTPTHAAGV
Chain of MEK2 (P36507 whole entry, species assumed): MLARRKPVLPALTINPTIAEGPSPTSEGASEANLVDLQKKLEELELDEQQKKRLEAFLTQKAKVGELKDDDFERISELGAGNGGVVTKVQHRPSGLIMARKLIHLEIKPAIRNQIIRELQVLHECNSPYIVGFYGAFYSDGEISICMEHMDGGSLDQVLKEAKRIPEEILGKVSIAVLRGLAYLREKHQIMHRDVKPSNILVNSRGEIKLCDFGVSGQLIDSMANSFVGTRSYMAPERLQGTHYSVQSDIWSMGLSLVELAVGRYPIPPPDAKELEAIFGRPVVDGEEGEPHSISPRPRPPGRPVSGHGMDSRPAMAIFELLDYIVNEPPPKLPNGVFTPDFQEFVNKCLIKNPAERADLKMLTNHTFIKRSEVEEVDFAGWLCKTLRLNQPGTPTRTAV
Chain of EGFR (P00533 25-1210): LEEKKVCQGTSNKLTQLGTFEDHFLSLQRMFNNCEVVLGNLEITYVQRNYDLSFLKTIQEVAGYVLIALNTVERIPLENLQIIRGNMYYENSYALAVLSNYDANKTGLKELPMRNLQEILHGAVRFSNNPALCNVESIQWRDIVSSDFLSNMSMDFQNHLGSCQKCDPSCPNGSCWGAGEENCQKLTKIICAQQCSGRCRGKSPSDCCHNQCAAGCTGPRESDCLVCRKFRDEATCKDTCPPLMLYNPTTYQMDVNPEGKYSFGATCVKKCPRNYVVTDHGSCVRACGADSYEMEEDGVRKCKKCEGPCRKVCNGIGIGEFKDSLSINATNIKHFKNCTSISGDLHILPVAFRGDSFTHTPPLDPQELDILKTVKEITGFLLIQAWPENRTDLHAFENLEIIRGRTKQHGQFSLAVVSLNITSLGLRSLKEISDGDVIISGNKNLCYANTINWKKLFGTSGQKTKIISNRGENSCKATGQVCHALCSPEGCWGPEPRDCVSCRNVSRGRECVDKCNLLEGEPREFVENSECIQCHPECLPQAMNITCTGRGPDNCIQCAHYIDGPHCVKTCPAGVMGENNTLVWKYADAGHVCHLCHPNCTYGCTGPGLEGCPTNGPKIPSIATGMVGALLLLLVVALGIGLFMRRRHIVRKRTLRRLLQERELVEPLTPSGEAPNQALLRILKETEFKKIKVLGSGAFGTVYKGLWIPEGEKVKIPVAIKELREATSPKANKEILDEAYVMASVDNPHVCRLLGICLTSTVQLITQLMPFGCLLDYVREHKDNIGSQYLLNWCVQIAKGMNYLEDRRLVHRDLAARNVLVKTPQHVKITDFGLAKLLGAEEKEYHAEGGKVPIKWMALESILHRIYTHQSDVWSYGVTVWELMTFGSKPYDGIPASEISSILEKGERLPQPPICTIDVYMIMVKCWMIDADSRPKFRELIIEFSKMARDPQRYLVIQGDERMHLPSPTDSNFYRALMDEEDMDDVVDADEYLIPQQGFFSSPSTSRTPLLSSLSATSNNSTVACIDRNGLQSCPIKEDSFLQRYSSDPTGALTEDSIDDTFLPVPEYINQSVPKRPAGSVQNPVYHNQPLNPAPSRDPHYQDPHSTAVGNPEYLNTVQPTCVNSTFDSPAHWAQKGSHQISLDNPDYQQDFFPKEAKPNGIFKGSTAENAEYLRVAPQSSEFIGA
Chain of CSF-1R (P07333 20-972, species assumed): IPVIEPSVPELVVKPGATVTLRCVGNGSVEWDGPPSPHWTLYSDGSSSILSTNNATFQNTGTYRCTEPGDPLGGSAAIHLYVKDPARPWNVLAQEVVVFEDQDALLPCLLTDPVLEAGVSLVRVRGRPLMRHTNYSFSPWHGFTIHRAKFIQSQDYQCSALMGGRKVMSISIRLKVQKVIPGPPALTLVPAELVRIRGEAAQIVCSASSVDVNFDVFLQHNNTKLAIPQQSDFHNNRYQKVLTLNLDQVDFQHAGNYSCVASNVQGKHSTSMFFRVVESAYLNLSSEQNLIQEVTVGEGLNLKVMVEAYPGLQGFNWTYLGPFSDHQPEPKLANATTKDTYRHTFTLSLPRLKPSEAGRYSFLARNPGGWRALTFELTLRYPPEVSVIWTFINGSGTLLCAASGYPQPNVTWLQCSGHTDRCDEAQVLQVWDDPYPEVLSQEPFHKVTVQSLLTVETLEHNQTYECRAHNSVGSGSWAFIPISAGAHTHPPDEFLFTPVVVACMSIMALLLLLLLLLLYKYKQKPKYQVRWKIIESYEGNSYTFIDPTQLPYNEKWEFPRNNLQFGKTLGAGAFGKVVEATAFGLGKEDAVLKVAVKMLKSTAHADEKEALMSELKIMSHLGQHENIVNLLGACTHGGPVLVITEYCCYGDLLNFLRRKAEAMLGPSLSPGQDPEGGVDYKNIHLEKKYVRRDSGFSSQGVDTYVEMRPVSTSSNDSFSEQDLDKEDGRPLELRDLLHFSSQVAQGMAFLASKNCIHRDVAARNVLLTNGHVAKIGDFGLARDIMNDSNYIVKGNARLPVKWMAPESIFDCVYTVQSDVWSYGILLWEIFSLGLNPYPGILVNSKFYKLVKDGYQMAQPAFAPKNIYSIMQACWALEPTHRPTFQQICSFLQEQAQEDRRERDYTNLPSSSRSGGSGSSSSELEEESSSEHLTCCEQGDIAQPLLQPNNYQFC

SMILES: COc1cc(CCc2cc(NC(=O)c3ccc(N4C[C@@H](C)N[C@@H](C)C4)cc3)n[nH]2)cc(OC)c1 [AZD4547, N-(5-(3,5-dimethoxyphenethyl)-1H-pyrazol-3-yl)-4-((3S,5R)-3,5-dimethylpiperazin-1-yl)benzamide]
Activity against FGFR4, VEGFR2 (KDR) [1]: weaker activity

SMILES: CN(C)Cc1cccc(N/C(=C2\C(=O)Nc3cc(C(=O)N(C)C)ccc32)c2ccccc2)c1 [BIX 02189, (Z)-3-((3-((dimethylamino)methyl)phenylamino)(phenyl)methylene)-N,N-dimethyl-2-oxoindoline-6-carboxamide]
Inhibition of closely related kinases MEK1, MEK2, ERK2, and JNK2 [2]: does not inhibit

SMILES: Cc1[nH]c(/C=C2\C(=O)Nc3ccccc32)c(C)c1CCC(=O)O [SU6668, (Z)-3-(2,4-dimethyl-5-((2-oxoindolin-3-ylidene)methyl)-1H-pyrrol-3-yl)propanoic acid]
Activity against IGF-1R, Met, Src, Lck, Zap70, Abl and CDK2 [3]: little activity
Inhibition of Flk-1 and FGFR1 trans-phosphorylation [4]: strongly inhibits

SMILES: Cc1cc2c(F)c(Oc3ncnn4cc(OC[C@@H](C)O)c(C)c34)ccc2[nH]1 [Brivanib, (R)-1-(4-(4-fluoro-2-methyl-1H-indol-5-yloxy)-5-methylpyrrolo[1,2-f][1,2,4]triazin-6-yloxy)propan-2-ol]
Potency against VEGFR-1 and FGFR-1 [8]: moderate potency

SMILES: O=C(NC[C@H](O)CO)c1ccncc1Nc1ccc(I)cc1F [AS-703026, (S)—N-(2,3-dihydroxypropyl)-3-(2-fluoro-4-iodophenylamino) isonicotinamide]
pIC50 [18]: 5.70 to 8.30

SMILES: C=CCc1ccc(O)c(-c2ccc(O)c(CC=C)c2)c1 [Honokiol, 2-(4-hydroxy-3-prop-2-enyl-phenyl)-4-prop-2-enyl-phenol]
Effect on ERK1/2 phosphorylation [19]: promotes
Effect on Akt-phosphorylation [20]: inhibits

SMILES: Cn1cnc2c(F)c(Nc3ccc(Br)cc3F)c(C(=O)NOCCO)cc21 [ARRY-162, 5-((4-bromo-2-fluorophenyl)amino)-4-fluoro-N-(2-hydroxyethoxy)-1-methyl-1H-benzo[d]imidazole-6-carboxamide]
pIC50 [21]: 7.92
pIC50 [22]: 7.96
Ex vivo effect on cytokine production such as IL-1, TNF and IL-6 [23]: inhibition

Further lines, with some results ahead:

pIC50 [6]: ~6.66
pIC50 [7]: ~6.74
SMILES: N#C/C(=C(/N)Sc1ccc(N)cc1)c1ccccc1C(F)(F)F [SL327, (Z)-3-amino-3-(4-aminophenylthio)-2-(2-(trifluoromethyl)phenyl) acrylonitrile]
Activity towards Erk1, MKK3, MKK4, c-JUN, PKC, PKA, or CamKII [5]: no activity

SMILES: COc1cccc(-c2cc(=O)c3ccccc3o2)c1N [PD98059, 2-(2-amino-3-methoxyphenyl)-4H-chromen-4-one]
Direct inhibition of ERK1 or ERK2 [9]: does not directly inhibit

Activity against EGFR [11]: no activity
pIC50 [12]: 6.30 to 6.52
SMILES: COc1cc2ncc(-c3ccccc3)nc2cc1OC [Tyrphostin AG 1296, Quinoxaline, 6,7-dimethoxy-2-phenyl-]

pIC50 [14]: 7.82
SMILES: O=C(Nc1ccc(OC(F)(F)F)cc1)c1sccc1NCc1ccnc2ccccc12 [OSI-930]
Potency to Flt-1, c-Raf and Lck [13]: also potent
Activity against PDGFRα/β, Flt-3 and Abl [15]: low activity

pIC50 [7]: ~8.49
SMILES: Cn1c(=O)c(F)c(Nc2ccc(I)cc2F)c2c(=O)n(C[C@@H](O)CO)cnc21 [TAK-733, (R)-3-(2,3-dihydroxypropyl)-6-fluoro-5-(2-fluoro-4-iodophenylamino)-8-methylpyrido[2,3-d]pyrimidine-4,7(3H,8H)-dione]
Activity to Abl1, AKT3, c-RAF, CamK1, CDK2, c-Met [16]: inactive

Kinase activities of c-Raf, B-Raf, ERK1/2 [17]: does not inhibit
SMILES: CC(=O)Nc1cccc(-n2c(=O)n(C3CC3)c(=O)c3c(Nc4ccc(I)cc4F)n(C)c(=O)c(C)c32)c1 [Trametinib, N-(3-{3-Cyclopropyl-5-[(2-fluoro-4-iodophenyl)amino]-6,8-dimethyl-2,4,7-trioxo-3,4,6,7-tetrahydropyrido[4,3-d]pyrimidin-1(2H)-yl}phenyl)acetamide]
